Patent publication US20240270744A1 (Hoffmann-La Roche Inc., priority 2021, published 2024)
pKi: −log10 of the molar value. Where two headings read alike, the source gives them in different places.

Key:
[1] = target: human GABAA α2β2γ1 receptor (Homo sapiens (Human), UniProt P47869+Q8N1C3); assay: Radioligand binding assay, competition for [3H]RO7239181, γ1-containing GABAA subtypes; conditions: for LogSel: Log of the γ2/γ1 Ki ratio
Method: (§1) The affinity of compounds at GABAA γ1 subunit-containing receptors was measured by competition for [^3H]RO7239181 (67.3 Ci/mmol; Roche) binding to membranes from HEK293F cells (ThermoFisher R79007) expressing human (transiently transfected) receptors of composition α5β2γ1, α2β2γ1, α1β2γ1.
(§2) Harvested pellets from HEK293F cells expressing the different GABAA receptor subtypes were resuspended in Mannitol Buffer pH 7.2-7.4 (Mannitol 0.29 M, Triethylamine 10 mM, Acetic acid 10 mM, EDTA 1 mM plus protease inhibitors (20 tablets Complete, Roche Diagnostics Cat. No. 05 056 489 001 per liter)), washed two times and then resuspended at 1:10 to 1:15 dilution in the same buffer. Cell disruption was performed by stirring the suspension in a Parr vessel #4637 at 435 psi for 15 minutes, and then the suspensions were centrifuged at 1000×g for 15 minutes at 4° C. (Beckman Avanti J-HC: rotor JS-4.2). The supernatant (S1) was transferred in a 21 Schott flask and the pellet (P1) was resuspended with Mannitol Buffer up to 175 ml. The resuspended pellet was transferred into a 250 ml Corning centrifugal beaker and centrifuged at 1500×g for 10 minutes at 4° C. (Beckman Avanti J-HC: rotor JS-4.2). The supernatant (S1) was then transferred in the 21 Schott flask and the pellet was discarded. The supernatants (S1) were centrifuged in 500 ml Beckman polypropylene centrifugal beaker at 15′000×g for 30 minutes at 4° C. (Beckman Avanti J-20 XP; rotor JLA-10.500). The pellet (P2) was resuspended with Mannitol Buffer 1:1 and frozen at −80° C. The supernatant (S2) was centrifuged in 100 ml Beckman polypropylene centrifugal tubes at 48000×g for 50 minutes at 4° C. (Beckman Avanti J-20 XP; rotor JA-18). The supernatant (S3) was discarded and the pellet (P3) was resuspended with 1:1 Mannitol Buffer. The P2 and P3 protein concentration was determined with the BIORAD Standard assay method with bovine serum albumin as standard and measured on the NANO-Drop 1000. The membrane suspension was aliquots (500 μl per tube) and stored at −80° C. until required.
(§3) Membrane homogenates were resuspended and polytronised (Polytron PT1200E Kinematica AG) in Potassium Phosphate 10 mM, KCl 100 mM binding buffer at pH 7.4 to a final assay concentration determined with a previous experiment.
(§4) Assays were incubated to equilibrium for 1 hour at 4° C. and then, membranes were filtered onto unifilter (96-well white microplate with bonded GF/C filters preincubated 20-50 minutes in 0.3% Polyethylenimine) with a Filtermate 196 harvester (Packard BioScience) and washed 4 times with cold Potassium Phosphate 10 mM pH 7.4, KCl 100 mM binding buffer. After anhydrousing, filter-retained radioactivity was detected by liquid scintillation counting. Ki values were calculated using Excel-Fit (Microsoft) and are the means of two determinations.

[2] = target: human GABAA α1β3γ2 receptor (Homo sapiens (Human), UniProt P14867+P18507); assay: Radioligand binding assay, competition for [3H]Flumazenil, γ2-containing GABAA subtypes
Method: The affinity of compounds at GABAA γ2 subunit-containing receptors was measured by competition for [^3H]Flumazenil (81.1 Ci/mmol; Roche) binding to HEK293F cells expressing human (transiently transfected) receptors of composition α1β3γ2.
Harvested pellets from HEK293F cells expressing the different GABAA γ2 receptor subtypes were resuspended in Mannitol Buffer pH 7.2-7.4 and processed as described above for the cells expressing the GABAA γ1 subunit-containing receptors.
Assays were incubated to equilibrium for 1 hour at 4° C. and harvested onto GF/C uni-filters (Packard) by filtration using a Packard harvester and washing with ice-cold wash buffer (50 mM Tris; pH 7.5). After anhydrousing, filter-retained radioactivity was detected by liquid scintillation counting. Ki values were calculated using Excel-Fit (Microsoft) and are the means of two determinations.

[3] = target: human GABAA α5β2γ1 receptor (Homo sapiens (Human), UniProt P31644+Q8N1C3); assay: Radioligand binding assay, competition for [3H]RO7239181, γ1-containing GABAA subtypes; conditions: Table 1; [3H]RO7239181 displacement, membranes from HEK293F cells, mean of two determinations
Method: as §1, with “α1β2γ1. For better protein expression of the α2 subunit-containing receptors, the 28 amino acid long signal peptide (Met1 to Ala28) of the human GABAA α2 subunit was substituted by the 31 amino acid long signal peptide (Met1 to Ser31) of human GABAA α5 subunit.” for “α1β2γ1.”
as §2, §3
as §4, with “Radioligand binding assays were carried out in a volume of 200 μL (96-well plates) which contained 100 μL of cell membranes, [3H]RO7239181 at a concentration of 1.5 nM (α5β2γ1) or 20-30 nM (α1β2γ1, α2β2γ1) and the test compound in the range of [0.3-10000]=10^−9 M. Nonspecific binding was defined by 10×10^−6 (α5β2γ1) and 30×10^−6 M RO7239181 and typically represented less than 5% (α5β2γ1) and less than 20% (β1β2γ1, α2β2γ1) of the total binding. Assays” for “Assays”
Representative test results, obtained by the above described assay measuring binding affinity to HEK293 cells expressing human (h) receptors, are shown in the Table 1.

[4] = target: h-GABA-A α2β2γ1 (Homo sapiens (Human), UniProt P47869+Q8N1C3); assay: Two-electrode voltage clamp electrophysiology in Xenopus oocytes expressing GABAA receptors; format: cell-based; conditions: α2β2γ1 GABAA receptor subtype expressing oocytes; reference PAMs
Method: Xenopus laevis oocytes at maturation stages V-VI were used for the expression of cloned mRNA encoding GABAA receptor subunits. Oocytes ready for RNA micro-injection were bought from Ecocyte, Castrop-Rauxel, Germany and stored in modified Barth's medium (composition in mM: NaCl 88, KCl 1, NaHCO3 2.4, HEPES 10, MgSO4 0.82, CaNO3 0.33, CaCl2 0.33, pH=7.5) at 20° C. until the experiment.
Oocytes were plated in 96-well plates for microinjection using the Roboinject automated instrument (MultiChannelSystems, Reutlingen, Germany). Approximately 50 nL of an aqueous solution containing the RNA transcripts for the subunits of the desired GABAA receptor subtype was injected into each oocyte. […] Oocytes were kept in modified Barth's medium (composition in mM: NaCl 88, KCl 1, NaHCO3 […], HEPES 10, MgSO4 0.82, CaNO3 0.33, CaCl2 0.33, pH=7.5) at 20° C. until the experiment.
Electrophysiological experiments were performed using the Roboocyte instrument (MultiChannelSystems, Reutlingen, Germany) on days 3 to 5 after the micro-injection of mRNA. During the experiment the oocytes were constantly superfused by a solution containing (in mM) NaCl 90, KCl 1, HEPES 5, MgCl2 1, CaCl2 1 (pH 7.4). Oocytes were impaled by two glass microelectrodes (resistance: […]) which were filled with a solution containing KCl 1M+K-acetate 1.5 M and voltage-clamped to −80 mV. The recordings were performed at room temperature using the Roboocyte two-electrode voltage clamp system (Multichannelsystem). After an initial equilibration period of 1.5 min GABA was added for 1.5 min at a concentration evoking approximately 20% of a maximal current response (EC20). After another rest interval of 2.5 min GABA was again added evoking a response of similar amplitude and shape. […] Current traces were recorded at a digitization rate of 10 Hz during and shortly before and after the GABA application.
Each compound and concentration was tested on at least 3 oocytes. Different oocytes were used for different compound concentrations.
For the analysis, the digitized current traces of the first and second GABA response were superimposed and, if necessary, rescaled to equal maximal amplitudes. The ratio between the two responses during the time interval of test compound application was calculated point by point. The extremum of the resulting “ratio trace” was taken as the efficacy (“Fold increase”) of the compound expressed as “% modulation of GABA EC20” (100*(Fold increase−1)).

[5] = Ki h-GABAA α2β2γ1, Table 1, [3H]RO7239181 displacement, membranes from HEK293F cells, mean of two determinations
[6] = Table 1, Ki α1β3γ2 (nM)/Ki α2β2γ1 (nM)
[7] = Table 1, [3H]Flumazenil displacement, HEK293F cells, mean of two determinations, read-out: Ki h-GABAA α1β3γ2

Q: How did the pKi [1] turn out when `Cc1cn2c(n1)[C@H](C)N=C(c1c(F)cccc1F)c1c-2cnc(C(F)(F)F)c1Cl` [Example 18, (7S)-11-chloro-9-(2,6-difluorophenyl)-4,7-dimethyl-12-(trifluoromethyl)-2,5,8,13-tetrazatricyclo[8.4.0.02,6]tetradeca-1(10),3,5,8,11,13-hexaene] was run?
A: 6.88

Q: And the pKi [1, 5]?
A: 7.26

Q: What about the “γ2/γ1 Selectivity Ratio” value [1, 6] of the same compound?
A: 77

Q: And the LogSel ([1]; Table 1)?
A: 1.88

Q: And the pKi [2, 7]?
A: 5.38

Q: And the pKi [3]?
A: 8.23

Q: With `C[C@@H]1N=C(c2c(F)cccc2F)c2c(cnc(C(F)(F)F)c2Cl)-n2nc(C(=O)N[C@H]3C[C@@H](O)C3)nc21` [Example 23, (7S)-11-chloro-9-(2,6-difluorophenyl)-N-cis-(3-hydroxycyclobutyl)-7-methyl-12-(trifluoromethyl)-2,3,5,8,13-pentazatricyclo[8.4.0.02,6]tetradeca-1(10),3,5,8,11,13-hexaene-4-carboxamide] as the compound, how does the “γ2/γ1 Selectivity Ratio” value [1, 6] read?
A: 144

Q: What about the LogSel ([1]; Table 1) of the same compound?
A: 2.16

Q: What about the pKi ([1]; Table 1, [3H]RO7239181 displacement, membranes from HEK293F cells, mean of two determinations, read-out: Ki h-GABAA α2β2γ1) of the same compound?
A: 6.99

Q: What about the pKi ([1]; Table 2, [3H]RO7239181 displacement, read-out: Ki h-GABAA α2β2γ1) of the same compound?
A: 6.99

Q: What about the pKi [2, 7] of the same compound?
A: 4.84

Q: What about the pKi [3] of the same compound?
A: 8.01

Q: `C[C@@H]1N=C(c2c(F)cccc2F)c2c(cnc(C(F)(F)F)c2Cl)-n2nc(C(=O)N[C@H]3C[C@H](O)C3)nc21` [Example 24, (7S)-11-chloro-9-(2,6-difluorophenyl)-N-trans-(3-hydroxycyclobutyl)-7-methyl-12-(trifluoromethyl)-2,3,5,8,13-pentazatricyclo[8.4.0.02,6]tetradeca-1(10),3,5,8,11,13-hexaene-4-carboxamide] was tested. Which pKi [1, 5] did it give?
A: 7.14

Q: And the pKi ([1]; Ki h-GABAA α2β2γ1, Table 2, [3H]RO7239181 displacement)?
A: 7.14

Q: And the “γ2/γ1 Selectivity Ratio” value [1, 6]?
A: 115

Q: What about the LogSel ([1]; Table 1) of the same compound?
A: 2.06

Q: And the pKi [2, 7]?
A: 5.08

Q: And the pKi [3]?
A: 8.55

Q: How did the “potentiation of the GABA-induced current” value [4] turn out when `Cc1ncc2n1-c1ccc(Cl)cc1C(c1ccccc1F)=NC2` [Midazolam, reference compound] was run?
A: ~60%

Q: How did the pKi ([1]; Ki h-GABAA α2β2γ1, Table 3, reference compounds comparison) turn out when `CN1C(=O)CN=C(c2ccccc2F)c2ccncc21` [RE-A, reference compound] was run?
A: 4.99

Q: What about the “γ2/γ1 Selectivity Ratio” value ([1]; Table 3, Ki α1β3γ2/Ki α2β2γ1) of the same compound?
A: 0.018

Q: And the pKi [2]?
A: 6.75

Q: With `Cc1nnc2n1-c1ccc(Cl)cc1C(c1ccccc1Cl)=NC2` [Triazolam, reference compound] as the compound, how does the “potentiation of the GABA-induced current” value [4] read?
A: ~60%
